Assay results: patent US7034208B1, “Ahas inhibiting herbicide resistant wheat and method for selection thereof” (BASF Aktiengellschaft, priority 1991, dated 2006)

Legend:
wheat seeds = test: Seed soak screen (Example 1, Step 1, Experiments 1-4); assay type: in vivo
Method: The seeds are rinsed in sterile distilled water and then soaked in a herbicide concentration for a set period of time, as described below. Sets of twenty-five seeds are placed into 25 ml of the herbicide solution described below in a sterile 100×15 mm plastic petri dish and soaked for the designated time. The seeds are rinsed with water, dried with paper towels and planted (25 seeds/flat) approximately ½″ deep in 6×8 inch peat flats containing a moist, sterile, artificial soil, Metro Mix 350™ (Grace Company, Cambridge, Mass.). The treatments are evaluated at four weeks after treatment. The herbicides, rates and time periods evaluated are described below:
Each treatment is replicated four times.
Each treatment is replicated two times.
The protocol is as described above except that 35 seeds are soaked per petri dish; 25 seeds are still planted per flat. This experiment is repeated twice.

[1] = system: testcross progeny Fidel x (Fidel/FS1-FS4); test: Genetic Condition Studies Experiment 3, testcrosses back to Fidel; assay type: in vivo, wheat; settings: out of 49 test-cross progeny sprayed; 200 g/ha; rated three and one-half weeks later
From the text: Experiment 3: Testcrosses of the F1 hybrids (described in Experiment 1) back to Fidel are sprayed with 200 g/ha of PURSUIT™. The following testcrosses are planted in 6 inch azalea pots in Metro Mix 350™. The number of pots planted per cross is indicated by the number after the cross:
Approximately one month later, the plants are sprayed (except for Fidel). PURSUIT™ (200 g/ha) is applied as previously described. The plants are rated three and one-half weeks later.

[2] = system: wheat variety Fidel and resistant selections FS2 and FS4; test: Preemergence Herbicide Tolerance; assay type: in vivo; settings: pre-emergence application; plant growth after four weeks; versus Fidel
[3] = system: wheat selections FS2 and FS4 and Fidel; test: Postemergence Herbicide Tolerance, upper limits; assay type: in vivo; settings: four weeks after treatment
From the text: In this second greenhouse test, the upper limits of the mutant selections' resistance to postemergent applications of PURSUIT™ and Compound 2 are examined. M4 seed of two of the mutant selections, FS2 and FS4, and seed of Fidel are used in this experiment. Five seeds from each line are planted per pot in sterile Metro Mix 350™ in six inch Azalea pots. Immediately prior to herbicide treatment, these plants are thinned to three plants per pot. Three replicates are used per treatment (chemical & rate) for each line, and six replicates per wheat line are used as untreated controls. The plants are sprayed postemergence, 10 days after planting, with the following herbicides and rates (g/ha):
The herbicides are applied as previously described. Plant height is measured immediately prior to spraying. Plant heights are also measured at two and four weeks after treatment, and shoot fresh weights measured at seven weeks after treatment.

[4] = system: AHAS (acetohydroxyacid synthase); test: AHAS Enzyme Assay I and II (M4 Plants); assay type: biochemical, wheat
Method: Enzyme Extraction: For the extraction of AHAS, 10 grams of tissue are powdered in liquid nitrogen and then homogenized in 100 mM potassium phosphate buffer (pH 7.5) containing 10 mM pyruvate, 5 mM MgCl2, 5 uM EDTA, 100 uM FAD, 1 mM valine, 1 mM leucine, 10% glycerol, and 10 mM cysteine. The homogenate is filtered through a nylon cloth (53 uM mesh) and centrifuged at 25,000 g for 20 minutes. The supernatant fraction is brought to 50% saturation with respect to (NH4)2SO4 and allowed to stand for 20-30 minutes on ice. It is then centrifuged at 25,000 g for 20 minutes and the supernatant is discarded. The ammonium sulfate pellet is dissolved in 50 mM potassium phosphate buffer (pH 7.5) containing 1 mM EDTA and 100 mM NaCl and used for the assay procedures.
AHAS Assay: AHAS activity is measured by estimation of the product, acetolactate, after conversion by decarboxylation in the presence of acid to acetoin. Standard reaction mixtures contain the enzyme in 50 mM potassium phosphate buffer (pH 7.0) containing 100 mM sodium pyruvate, 10 mM MgCl2, 1 mM thiamine pyrophosphate, and 10 uM FAD. This mixture is incubated at 37° C. for one hour after which time the reaction is stopped with the addition of […] to make a final concentration of 0.85% […] in the tube. The reaction product is allowed to decarboxylate at 60° C. for 15 minutes. The acetoin formed is determined by incubating with creatine (0.17%) and 1-napthol (1.7% in 4N NaOH) by the method of Westerfield (Westerfield, W. W., J. Biol. Chem., 161, 495-502 (1945)). Maximum color is observed by incubation at 60° C. for 15 minutes and then further incubation at room temperature for 15 minutes. The absorption of color complex is measured at 520 nm. Appropriate checks of direct acetoin formation during the enzyme assay are made. Each assay is run at least in duplicate and the experiments are repeated a minimum of two times.
Herbicide Application: Two flats are planted with approximately 100 seeds of each wheat selection (FS1, FS2, and FS4) and Fidel in sterile Metro Mix 350. Ten days later, each flat is sprayed postemergence with 62.5 g/ha of PURSUIT™. The spray delivery rate is 400 L/ha with a belt speed of 8.2 sec/rev using nozzle #65015E. Tween 20™ is used as a surfactant at 0.25% v/v. The plants are harvested three days later and assayed for AHAS activity.
Enzyme Extraction and AHAS Assay: As previously described.
Herbicide Application: As described above (Enzyme Assay I) except that the spray delivery rate is 950 l/ha with a belt speed of 12.8 sec/rev using nozzle #40015E.

## CCc1cnc(C2=NC(C)(C(C)C)C(=O)N2)c(C(=O)O)c1 (centres unmarked) [PURSUIT, 5-ethyl-2-(4-isopropyl-4-methyl-5-oxo-2-imidazolin-2-yl)-nicotinic acid]
Wheat seeds; seed soak for 72 hours
  concentration that prevents the survival of potential false positives: 1000 µM
Wheat seeds; seed soak for 96 hours
  concentration that prevents the survival of potential false positives: 750 µM
[1]
  test-cross progeny killed: 20
  test-cross progeny that survive: 29
[2]
  increased tolerance of FS2 and FS4: approximately 8 fold
[3]
  rates up to which FS2 and FS4 plant heights equal the untreated controls: 500-1000 g/ha
[4]; homozygous resistant mutant lines, unsprayed plants, compared to Fidel enzyme
  resistance of AHAS activity to inhibition: moderate levels of resistance
[4]; selections sprayed with 62.5 g/ha PURSUIT, compared to sprayed Fidel
  resistance of AHAS activity to inhibition: significantly higher level of resistance
